Assay results published in patent US9738634B2, “Heterocyclic amide compound and herbicide” (SYNGENTA PARTICIPATIONS AG, priority 2013, dated 2017).

Assays:
Assay type in all cases: in vivo
[1] = tested on: birds-eye speedwell; assay: Test Example 4: weedkilling efficacy by foliar treatment; p: birds-eye speedwell; conditions: treatment dosage 315 g/ha
In short: (§1)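 Seeds are spot-sown into sterilized diluvial soil and covered with about 1.5 cm of soil. After 14 days' greenhouse growth at 25 to 30° C, plants are sprayed on stems and leaves with diluted emulsion at the stated g/ha rate, then scored at 3 weeks.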

[2] = tested on: corn; assay: Test Example 4: foliar treatment, effect on crop; c: corn; conditions: treatment dosage 315 g/ha
In short: as §1

[3] = tested on: barnyard grass; assay: Test Example 1: weedkilling efficacy, preemergent weed treatment in the submerged state; A: barnyard grass; conditions: treatment dosage 252 g/ha
In short: (§2)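 Submerged pre-emergence treatment, water-surface application of compound emulsion at g/ha dosages; 4 cm flooded alluvial soil, weeds sown and 2.5-leaf rice transplanted same day. Rated after 3 weeks, greenhouse.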

[4] = tested on: fig-leafed goosefoot; assay: Test Example 4: weedkilling efficacy by foliar treatment; M: fig-leafed goosefoot; conditions: treatment dosage 315 g/ha
In short: as §1

[5] = tested on: Italian ryegrass; assay: Test Example 3: weedkilling efficacy through soil treatment; I: Italian ryegrass; conditions: treatment dosage 315 g/ha
In short: (§3)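 Crop and weed responses were judged three weeks after a uniform surface spray of the water-diluted emulsion at the given g/ha rate. Seeds sat beneath about 1.5 cm of sterilized diluvial soil, and boxes stood in a greenhouse at 25 to 30° C.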

[6] = tested on: crabgrass; assay: Test Example 4: weedkilling efficacy by foliar treatment; D: crabgrass; conditions: treatment dosage 315 g/ha
In short: as §1

[7] = tested on: chickweed; assay: Test Example 3: weedkilling efficacy through soil treatment; N: chickweed; conditions: treatment dosage 315 g/ha
In short: as §3

[8] = tested on: directly sown rice; assay: Test Example 3: soil treatment, effect on crop; b: directly sown rice; conditions: treatment dosage 315 g/ha
In short: as §3

[9] = tested on: bulrush; assay: Test Example 1: weedkilling efficacy, preemergent weed treatment in the submerged state; B: bulrush; conditions: treatment dosage 252 g/ha
In short: as §2

[10] = tested on: corn; assay: Test Example 3: soil treatment, effect on crop; c: corn; conditions: treatment dosage 315 g/ha
In short: as §3

[11] = tested on: wild oat; assay: Test Example 4: weedkilling efficacy by foliar treatment; G: wild oat; conditions: treatment dosage 315 g/ha
In short: as §1

[12] = tested on: wheat; assay: Test Example 4: foliar treatment, effect on crop; e: wheat; conditions: treatment dosage 315 g/ha
In short: as §1

[13] = tested on: soybean; assay: Test Example 4: foliar treatment, effect on crop; d: soybean; conditions: treatment dosage 315 g/ha
In short: as §1

[14] = tested on: beet; assay: Test Example 3: soil treatment, effect on crop; f: beet; conditions: treatment dosage 315 g/ha
In short: as §3

[15] = tested on: oval-leafed pondweed; assay: Test Example 2: weedkilling efficacy, growth period weed treatment in the submerged state; C: oval-leafed pondweed; conditions: treatment dosage 252 g/ha
In short: (§4)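 Seedlings at 1-2 leaves in 4 cm-deep submerged alluvial soil received emulsion formulations on the water surface, dosed per hectare; effects were judged 3 weeks on.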

[16] = tested on: oval-leafed pondweed; assay: Test Example 1: weedkilling efficacy, preemergent weed treatment in the submerged state; C: oval-leafed pondweed; conditions: treatment dosage 252 g/ha
In short: as §2

[17] = tested on: chickweed; assay: Test Example 4: weedkilling efficacy by foliar treatment; N: chickweed; conditions: treatment dosage 315 g/ha
In short: as §1

[18] = tested on: crabgrass; assay: Test Example 3: weedkilling efficacy through soil treatment; D: crabgrass; conditions: treatment dosage 315 g/ha
In short: as §3

[19] = tested on: beet; assay: Test Example 4: foliar treatment, effect on crop; f: beet; conditions: treatment dosage 315 g/ha
In short: as §1

[20] = tested on: wheat; assay: Test Example 3: soil treatment, effect on crop; e: wheat; conditions: treatment dosage 315 g/ha
In short: as §3

[21] = tested on: Indian mallow; assay: Test Example 4: weedkilling efficacy by foliar treatment; K: Indian mallow; conditions: treatment dosage 315 g/ha
In short: as §1

[22] = tested on: catchweed; assay: Test Example 4: weedkilling efficacy by foliar treatment; O: catchweed; conditions: treatment dosage 315 g/ha
In short: as §1

[23] = tested on: Italian ryegrass; assay: Test Example 4: weedkilling efficacy by foliar treatment; I: Italian ryegrass; conditions: treatment dosage 315 g/ha
In short: as §1

[24] = tested on: barnyard grass; assay: Test Example 2: weedkilling efficacy, growth period weed treatment in the submerged state; A: barnyard grass; conditions: treatment dosage 252 g/ha
In short: as §4

[25] = tested on: directly sown rice; assay: Test Example 4: foliar treatment, effect on crop; b: directly sown rice; conditions: treatment dosage 315 g/ha
In short: as §1

[26] = tested on: black-grass; assay: Test Example 3: weedkilling efficacy through soil treatment; H: black-grass; conditions: treatment dosage 315 g/ha
In short: as §3

[27] = tested on: green foxtail; assay: Test Example 4: weedkilling efficacy by foliar treatment; E: green foxtail; conditions: treatment dosage 315 g/ha
In short: as §1

[28] = tested on: birds-eye speedwell; assay: Test Example 3: weedkilling efficacy through soil treatment; p: birds-eye speedwell; conditions: treatment dosage 315 g/ha
In short: as §3

[29] = tested on: redroot pigweed; assay: Test Example 4: weedkilling efficacy by foliar treatment; L: redroot pigweed; conditions: treatment dosage 315 g/ha
In short: as §1

[30] = tested on: transplanted rice; assay: Test Example 1: preemergent weed treatment in the submerged state, effect on crop; a: transplanted rice; conditions: treatment dosage 252 g/ha
In short: as §2

[31] = tested on: black-grass; assay: Test Example 4: weedkilling efficacy by foliar treatment; H: black-grass; conditions: treatment dosage 315 g/ha
In short: as §1

[32] = tested on: Indian mallow; assay: Test Example 3: weedkilling efficacy through soil treatment; K: Indian mallow; conditions: treatment dosage 315 g/ha
In short: as §3

[33] = tested on: wild oat; assay: Test Example 3: weedkilling efficacy through soil treatment; G: wild oat; conditions: treatment dosage 315 g/ha
In short: as §3

[34] = tested on: redroot pigweed; assay: Test Example 3: weedkilling efficacy through soil treatment; L: redroot pigweed; conditions: treatment dosage 315 g/ha
In short: as §3

[35] = tested on: fig-leafed goosefoot; assay: Test Example 3: weedkilling efficacy through soil treatment; M: fig-leafed goosefoot; conditions: treatment dosage 315 g/ha
In short: as §3

[36] = tested on: soybean; assay: Test Example 3: soil treatment, effect on crop; d: soybean; conditions: treatment dosage 315 g/ha
In short: as §3

[37] = tested on: green foxtail; assay: Test Example 3: weedkilling efficacy through soil treatment; E: green foxtail; conditions: treatment dosage 315 g/ha
In short: as §3

[38] = tested on: bulrush; assay: Test Example 2: weedkilling efficacy, growth period weed treatment in the submerged state; B: bulrush; conditions: treatment dosage 252 g/ha
In short: as §4

[39] = tested on: catchweed; assay: Test Example 3: weedkilling efficacy through soil treatment; O: catchweed; conditions: treatment dosage 315 g/ha
In short: as §3

Compound	P (birds-eye speedwell) weedkilling efficacy grade [1]	c (corn) effect on crop grade [2]	A (barnyard grass) weedkilling efficacy grade [3]	M (fig-leafed goosefoot) weedkilling efficacy grade [4]	I (Italian ryegrass) weedkilling efficacy grade [5]	D (crabgrass) weedkilling efficacy grade [6]	N (chickweed) weedkilling efficacy grade [7]	b (directly sown rice) effect on crop grade [8]	B (bulrush) weedkilling efficacy grade [9]	c (corn) effect on crop grade [10]	G (wild oat) weedkilling efficacy grade [11]	e (wheat) effect on crop grade [12]	d (soybean) effect on crop grade [13]	f (beet) effect on crop grade [14]	C (oval-leafed pondweed) weedkilling efficacy grade [15]	C (oval-leafed pondweed) weedkilling efficacy grade [16]	N (chickweed) weedkilling efficacy grade [17]	D (crabgrass) weedkilling efficacy grade [18]	f (beet) effect on crop grade [19]	e (wheat) effect on crop grade [20]	further results
CC1=C(c2ccccc2)C(=O)N(C(C)(C)C(=O)Nc2nc(Cl)ns2)CO1 [B-1-12]	3 (weed kill ratio 40% or more, less than 70%)	5 (weed kill ratio 90% or more, (practically complete withering))	5 (weed kill ratio 90% or more, (practically complete withering))	4 (weed kill ratio 70% or more, less than 90%)	2 (weed kill ratio 20% or more, less than 40%)	5 (weed kill ratio 90% or more, (practically complete withering))	4 (weed kill ratio 70% or more, less than 90%)	5 (weed kill ratio 90% or more, (practically complete withering))	5 (weed kill ratio 90% or more, (practically complete withering))	5 (weed kill ratio 90% or more, (practically complete withering))	3 (weed kill ratio 40% or more, less than 70%)	0 (weed kill ratio 5% or less (practically no effect))	0 (weed kill ratio 5% or less (practically no effect))	5 (weed kill ratio 90% or more, (practically complete withering))	5 (weed kill ratio 90% or more, (practically complete withering))	5 (weed kill ratio 90% or more, (practically complete withering))	4 (weed kill ratio 70% or more, less than 90%)	5 (weed kill ratio 90% or more, (practically complete withering))	4 (weed kill ratio 70% or more, less than 90%)	0 (weed kill ratio 5% or less (practically no effect))	K (Indian mallow) weedkilling efficacy grade [21]: 3 (weed kill ratio 40% or more, less than 70%); O (catchweed) weedkilling efficacy grade [22]: 3 (weed kill ratio 40% or more, less than 70%); I (Italian ryegrass) weedkilling efficacy grade [23]: 1 (weed kill ratio 5% or more, less than 20%); A (barnyard grass) weedkilling efficacy grade [24]: 5 (weed kill ratio 90% or more, (practically complete withering)); b (directly sown rice) effect on crop grade [25]: 3 (weed kill ratio 40% or more, less than 70%); H (black-grass) weedkilling efficacy grade [26]: 4 (weed kill ratio 70% or more, less than 90%); E (green foxtail) weedkilling efficacy grade [27]: 5 (weed kill ratio 90% or more, (practically complete withering)); P (birds-eye speedwell) weedkilling efficacy grade [28]: 4 (weed kill ratio 70% or more, less than 90%); L (redroot pigweed) weedkilling efficacy grade [29]: 0 (weed kill ratio 5% or less (practically no effect)); a (transplanted rice) effect on crop grade [30]: 0 (weed kill ratio 5% or less (practically no effect)); H (black-grass) weedkilling efficacy grade [31]: 4 (weed kill ratio 70% or more, less than 90%); K (Indian mallow) weedkilling efficacy grade [32]: 4 (weed kill ratio 70% or more, less than 90%); G (wild oat) weedkilling efficacy grade [33]: 3 (weed kill ratio 40% or more, less than 70%); L (redroot pigweed) weedkilling efficacy grade [34]: 4 (weed kill ratio 70% or more, less than 90%); M (fig-leafed goosefoot) weedkilling efficacy grade [35]: 4 (weed kill ratio 70% or more, less than 90%); d (soybean) effect on crop grade [36]: 0 (weed kill ratio 5% or less (practically no effect)); E (green foxtail) weedkilling efficacy grade [37]: 5 (weed kill ratio 90% or more, (practically complete withering)); B (bulrush) weedkilling efficacy grade [38]: 5 (weed kill ratio 90% or more, (practically complete withering))
CC1=C(c2ccccc2)C(=O)N(C(C)(C)C(=O)Nc2cc(Br)ccn2)CO1 [B-2-30]	4 (weed kill ratio 70% or more, less than 90%)	1 (weed kill ratio 5% or more, less than 20%)	5 (weed kill ratio 90% or more, (practically complete withering))	4 (weed kill ratio 70% or more, less than 90%)	5 (weed kill ratio 90% or more, (practically complete withering))	5 (weed kill ratio 90% or more, (practically complete withering))	4 (weed kill ratio 70% or more, less than 90%)	4 (weed kill ratio 70% or more, less than 90%)	5 (weed kill ratio 90% or more, (practically complete withering))	1 (weed kill ratio 5% or more, less than 20%)	3 (weed kill ratio 40% or more, less than 70%)	0 (weed kill ratio 5% or less (practically no effect))	4 (weed kill ratio 70% or more, less than 90%)	4 (weed kill ratio 70% or more, less than 90%)	3 (weed kill ratio 40% or more, less than 70%)	5 (weed kill ratio 90% or more, (practically complete withering))	3 (weed kill ratio 40% or more, less than 70%)	5 (weed kill ratio 90% or more, (practically complete withering))	4 (weed kill ratio 70% or more, less than 90%)	0 (weed kill ratio 5% or less (practically no effect))	O (catchweed) weedkilling efficacy grade [39]: 5 (weed kill ratio 90% or more, (practically complete withering)); K (Indian mallow) weedkilling efficacy grade [21]: 4 (weed kill ratio 70% or more, less than 90%); O (catchweed) weedkilling efficacy grade [22]: 4 (weed kill ratio 70% or more, less than 90%); I (Italian ryegrass) weedkilling efficacy grade [23]: 4 (weed kill ratio 70% or more, less than 90%); A (barnyard grass) weedkilling efficacy grade [24]: 5 (weed kill ratio 90% or more, (practically complete withering)); b (directly sown rice) effect on crop grade [25]: 5 (weed kill ratio 90% or more, (practically complete withering)); H (black-grass) weedkilling efficacy grade [26]: 5 (weed kill ratio 90% or more, (practically complete withering)); E (green foxtail) weedkilling efficacy grade [27]: 5 (weed kill ratio 90% or more, (practically complete withering)); L (redroot pigweed) weedkilling efficacy grade [29]: 4 (weed kill ratio 70% or more, less than 90%); a (transplanted rice) effect on crop grade [30]: 1 (weed kill ratio 5% or more, less than 20%); H (black-grass) weedkilling efficacy grade [31]: 3 (weed kill ratio 40% or more, less than 70%); K (Indian mallow) weedkilling efficacy grade [32]: 3 (weed kill ratio 40% or more, less than 70%); G (wild oat) weedkilling efficacy grade [33]: 5 (weed kill ratio 90% or more, (practically complete withering)); L (redroot pigweed) weedkilling efficacy grade [34]: 3 (weed kill ratio 40% or more, less than 70%); M (fig-leafed goosefoot) weedkilling efficacy grade [35]: 5 (weed kill ratio 90% or more, (practically complete withering)); d (soybean) effect on crop grade [36]: 1 (weed kill ratio 5% or more, less than 20%); E (green foxtail) weedkilling efficacy grade [37]: 5 (weed kill ratio 90% or more, (practically complete withering)); B (bulrush) weedkilling efficacy grade [38]: 5 (weed kill ratio 90% or more, (practically complete withering))
